Reference: the NIST ThermoML archive (doi:10.1021/je4005323)
± gives the expanded uncertainty stated by the source.

Details: Liquid; for speed of sound: Pulse-echo method; for mass density: Vibrating tube method

Compound: CCCCCCCC/C=C\CCCCCCCC(=O)OC [methyl cis-9-octadecenoate]
- speed of sound (283.15 K, 101.3 kPa): 1443.2 ± 3.2 m/s
- speed of sound (283.15 K, 10000 kPa): 1486.1 ± 3.3 m/s
- speed of sound (283.15 K, 20000 kPa): 1526.5 ± 3.4 m/s
- speed of sound (283.15 K, 30000 kPa): 1564.5 ± 3.4 m/s
- speed of sound (283.15 K, 40000 kPa): 1600.5 ± 3.5 m/s
- speed of sound (283.15 K, 50000 kPa): 1634.5 ± 3.5 m/s
- speed of sound (283.15 K, 60000 kPa): 1668.6 ± 3.6 m/s
- speed of sound (283.15 K, 70000 kPa): 1701 ± 3.7 m/s
- speed of sound (283.15 K, 80000 kPa): 1732.7 ± 3.7 m/s
- speed of sound (283.15 K, 90000 kPa): 1762.7 ± 3.8 m/s
- speed of sound (283.15 K, 100000 kPa): 1790.8 ± 5.6 m/s
- speed of sound (283.15 K, 110000 kPa): 1819.3 ± 5.7 m/s
- speed of sound (283.15 K, 120000 kPa): 1846 ± 5.7 m/s
- speed of sound (283.15 K, 130000 kPa): 1872.5 ± 5.8 m/s
- speed of sound (283.15 K, 140000 kPa): 1897.8 ± 5.9 m/s
- speed of sound (283.15 K, 150000 kPa): 1923.3 ± 6 m/s
- speed of sound (283.15 K, 160000 kPa): 1947.8 ± 6 m/s
- speed of sound (283.15 K, 170000 kPa): 1971.2 ± 6.1 m/s
- speed of sound (283.15 K, 180000 kPa): 1994.3 ± 6.2 m/s
- speed of sound (283.15 K, 190000 kPa): 2016.8 ± 6.2 m/s
- speed of sound (283.15 K, 200000 kPa): 2036.4 ± 6.3 m/s
- mass density (293.15 K, 101.3 kPa): 873.8 ± 0.6 kg/m3
- mass density (293.15 K, 10000 kPa): 880 ± 0.6 kg/m3
- mass density (293.15 K, 20000 kPa): 885.3 ± 0.6 kg/m3
- mass density (293.15 K, 30000 kPa): 890.6 ± 0.6 kg/m3
- mass density (293.15 K, 40000 kPa): 895.5 ± 0.6 kg/m3
- mass density (293.15 K, 50000 kPa): 900.1 ± 0.6 kg/m3
- mass density (293.15 K, 60000 kPa): 904.5 ± 0.7 kg/m3
- mass density (293.15 K, 70000 kPa): 908.9 ± 0.7 kg/m3
- mass density (293.15 K, 80000 kPa): 912.6 ± 0.7 kg/m3
- mass density (293.15 K, 90000 kPa): 916.9 ± 0.7 kg/m3
- mass density (293.15 K, 100000 kPa): 920.7 ± 0.7 kg/m3
- speed of sound (303.15 K, 101.3 kPa): 1370.5 ± 3.1 m/s
- mass density (303.15 K, 101.3 kPa): 866.3 ± 0.6 kg/m3
- speed of sound (303.15 K, 10000 kPa): 1416.8 ± 3.1 m/s
- mass density (303.15 K, 10000 kPa): 872.8 ± 0.6 kg/m3
- speed of sound (303.15 K, 20000 kPa): 1460 ± 3.2 m/s
- mass density (303.15 K, 20000 kPa): 878.4 ± 0.6 kg/m3
- speed of sound (303.15 K, 30000 kPa): 1502 ± 3.3 m/s
- mass density (303.15 K, 30000 kPa): 883.9 ± 0.6 kg/m3
- speed of sound (303.15 K, 40000 kPa): 1540.9 ± 3.4 m/s
- mass density (303.15 K, 40000 kPa): 888.9 ± 0.6 kg/m3
- speed of sound (303.15 K, 50000 kPa): 1578.3 ± 3.4 m/s
- mass density (303.15 K, 50000 kPa): 893.7 ± 0.7 kg/m3
- speed of sound (303.15 K, 60000 kPa): 1613.7 ± 3.5 m/s
- mass density (303.15 K, 60000 kPa): 898.3 ± 0.7 kg/m3
- speed of sound (303.15 K, 70000 kPa): 1647 ± 3.6 m/s
- mass density (303.15 K, 70000 kPa): 902.7 ± 0.7 kg/m3
- speed of sound (303.15 K, 80000 kPa): 1678.8 ± 3.6 m/s
- mass density (303.15 K, 80000 kPa): 906.9 ± 0.7 kg/m3
- speed of sound (303.15 K, 90000 kPa): 1709.5 ± 3.7 m/s
- mass density (303.15 K, 90000 kPa): 910.9 ± 0.7 kg/m3
- speed of sound (303.15 K, 100000 kPa): 1739.7 ± 5.4 m/s
- mass density (303.15 K, 100000 kPa): 915.4 ± 0.7 kg/m3
- speed of sound (303.15 K, 110000 kPa): 1768.5 ± 5.5 m/s
- speed of sound (303.15 K, 120000 kPa): 1796.4 ± 5.6 m/s
- speed of sound (303.15 K, 130000 kPa): 1821.2 ± 5.7 m/s
- speed of sound (303.15 K, 140000 kPa): 1848.1 ± 5.7 m/s
- speed of sound (303.15 K, 150000 kPa): 1874.2 ± 5.8 m/s
- speed of sound (303.15 K, 160000 kPa): 1899 ± 5.9 m/s
- speed of sound (303.15 K, 170000 kPa): 1923.1 ± 6 m/s
- speed of sound (303.15 K, 180000 kPa): 1947 ± 6 m/s
- speed of sound (303.15 K, 190000 kPa): 1970.3 ± 6.1 m/s
- speed of sound (303.15 K, 200000 kPa): 1992.7 ± 6.2 m/s
- mass density (313.15 K, 101.3 kPa): 859.6 ± 0.6 kg/m3
- mass density (313.15 K, 10000 kPa): 865.8 ± 0.6 kg/m3
- mass density (313.15 K, 20000 kPa): 871.7 ± 0.6 kg/m3
- mass density (313.15 K, 30000 kPa): 877.5 ± 0.6 kg/m3
- mass density (313.15 K, 40000 kPa): 882.5 ± 0.6 kg/m3
- mass density (313.15 K, 50000 kPa): 887.5 ± 0.7 kg/m3
- mass density (313.15 K, 60000 kPa): 892.2 ± 0.7 kg/m3
- mass density (313.15 K, 70000 kPa): 896.7 ± 0.7 kg/m3
- mass density (313.15 K, 80000 kPa): 901.2 ± 0.7 kg/m3
- mass density (313.15 K, 90000 kPa): 905.2 ± 0.7 kg/m3
- mass density (313.15 K, 100000 kPa): 909.7 ± 0.7 kg/m3
- speed of sound (323.15 K, 101.3 kPa): 1301.9 ± 2.9 m/s
- mass density (323.15 K, 101.3 kPa): 852.4 ± 0.6 kg/m3
- speed of sound (323.15 K, 10000 kPa): 1352.1 ± 3 m/s
- mass density (323.15 K, 10000 kPa): 858.9 ± 0.6 kg/m3
- speed of sound (323.15 K, 20000 kPa): 1397.7 ± 3.1 m/s
- mass density (323.15 K, 20000 kPa): 865.1 ± 0.6 kg/m3
- speed of sound (323.15 K, 30000 kPa): 1441.1 ± 3.2 m/s
- mass density (323.15 K, 30000 kPa): 870.9 ± 0.6 kg/m3
- speed of sound (323.15 K, 40000 kPa): 1482.3 ± 3.3 m/s
- mass density (323.15 K, 40000 kPa): 876.1 ± 0.6 kg/m3
- speed of sound (323.15 K, 50000 kPa): 1521.2 ± 3.3 m/s
- mass density (323.15 K, 50000 kPa): 881.1 ± 0.7 kg/m3
- speed of sound (323.15 K, 60000 kPa): 1558.5 ± 3.4 m/s
- mass density (323.15 K, 60000 kPa): 886.2 ± 0.7 kg/m3
- speed of sound (323.15 K, 70000 kPa): 1593.5 ± 3.5 m/s
- mass density (323.15 K, 70000 kPa): 891 ± 0.7 kg/m3
- speed of sound (323.15 K, 80000 kPa): 1627.2 ± 3.5 m/s
- mass density (323.15 K, 80000 kPa): 895.5 ± 0.7 kg/m3
- speed of sound (323.15 K, 90000 kPa): 1659.3 ± 3.6 m/s
- mass density (323.15 K, 90000 kPa): 899.7 ± 0.7 kg/m3
- speed of sound (323.15 K, 100000 kPa): 1690.2 ± 5.3 m/s
- mass density (323.15 K, 100000 kPa): 904.1 ± 0.8 kg/m3
- speed of sound (323.15 K, 110000 kPa): 1719.3 ± 5.4 m/s
- speed of sound (323.15 K, 120000 kPa): 1747.7 ± 5.4 m/s
- speed of sound (323.15 K, 130000 kPa): 1775.4 ± 5.5 m/s
- speed of sound (323.15 K, 140000 kPa): 1801.6 ± 5.6 m/s
- speed of sound (323.15 K, 150000 kPa): 1827.1 ± 5.7 m/s
- speed of sound (323.15 K, 160000 kPa): 1853 ± 5.7 m/s
- speed of sound (323.15 K, 170000 kPa): 1878.4 ± 5.8 m/s
- speed of sound (323.15 K, 180000 kPa): 1902.6 ± 5.9 m/s
- speed of sound (323.15 K, 190000 kPa): 1925.8 ± 6 m/s
- speed of sound (323.15 K, 200000 kPa): 1949.2 ± 6 m/s
- mass density (333.15 K, 101.3 kPa): 844.8 ± 0.6 kg/m3
- mass density (333.15 K, 10000 kPa): 851.7 ± 0.6 kg/m3
- mass density (333.15 K, 20000 kPa): 858.3 ± 0.6 kg/m3
- mass density (333.15 K, 30000 kPa): 864.2 ± 0.6 kg/m3
- mass density (333.15 K, 40000 kPa): 869.7 ± 0.7 kg/m3
- mass density (333.15 K, 50000 kPa): 875 ± 0.7 kg/m3
- mass density (333.15 K, 60000 kPa): 880.1 ± 0.7 kg/m3
- mass density (333.15 K, 70000 kPa): 884.9 ± 0.7 kg/m3
- mass density (333.15 K, 80000 kPa): 889.4 ± 0.7 kg/m3
- mass density (333.15 K, 90000 kPa): 893.9 ± 0.8 kg/m3
- mass density (333.15 K, 100000 kPa): 898.2 ± 0.8 kg/m3
- speed of sound (343.15 K, 101.3 kPa): 1235.8 ± 2.8 m/s
- mass density (343.15 K, 101.3 kPa): 837.8 ± 0.6 kg/m3
- speed of sound (343.15 K, 10000 kPa): 1289 ± 2.9 m/s
- mass density (343.15 K, 10000 kPa): 845.2 ± 0.6 kg/m3
- speed of sound (343.15 K, 20000 kPa): 1338.1 ± 3 m/s
- mass density (343.15 K, 20000 kPa): 851.9 ± 0.6 kg/m3
- speed of sound (343.15 K, 30000 kPa): 1383.7 ± 3.1 m/s
- mass density (343.15 K, 30000 kPa): 858.1 ± 0.6 kg/m3
- speed of sound (343.15 K, 40000 kPa): 1426 ± 3.1 m/s
- mass density (343.15 K, 40000 kPa): 864 ± 0.7 kg/m3
- speed of sound (343.15 K, 50000 kPa): 1466.7 ± 3.2 m/s
- mass density (343.15 K, 50000 kPa): 869.5 ± 0.7 kg/m3
- speed of sound (343.15 K, 60000 kPa): 1505.4 ± 3.3 m/s
- mass density (343.15 K, 60000 kPa): 874.6 ± 0.7 kg/m3
- speed of sound (343.15 K, 70000 kPa): 1542.2 ± 3.4 m/s
- mass density (343.15 K, 70000 kPa): 879.5 ± 0.7 kg/m3
